# Values quoted from earlier work in patent publication US20100310474A1, “PROTEIN CAGES FOR THE DELIVERY OF MEDICAL IMAGING AND THERAPEUTIC AGENTS” (MONTANA STATE UNIVERSITY, priority 2002, published 2010).
# Assays:
# [1] = tested on: experimental tumor lung colonization; conditions: free peptide
# tumor cells = conditions: free peptide
# platlets and neutrophils = conditions: cells bearing 67 kDa LBP
# tumor angiogenesis = conditions: mice
Molecule,experimental tumor lung colonization [1],invasion of basement membranes by tumor cells (tumor cells),toxic effect on platelets and neutrophils (platlets and neutrophils),tumor angiogenesis (tumor angiogenesis),cytotoxic effects on tumor cells (tumor cells in culture)
CDPGYIGSRC [peptide 11],reduces,effectively blocks,no toxic effect,inhibits,
Cc1ccc(C(=O)Nc2ccc(S(=O)(=O)O)c3cc(S(=O)(=O)O)cc(S(=O)(=O)O)c23)cc1NC(=O)c1cccc(NC(=O)Nc2cccc(C(=O)Nc3cc(C(=O)Nc4ccc(S(=O)(=O)O)c5cc(S(=O)(=O)O)cc(S(=O)(=O)O)c45)ccc3C)c2)c1 [suramin],,,,,cytotoxic effects
